The structures appear in SMILES notation. Values after ≈ are worked out from the molar mass of the structure shown.

Some test systems named below: Candida glabrata; Escherichia coli 5509; Escherichia coli 09-280; Escherichia coli 170; Escherichia coli 09-240; Escherichia coli O157:H7.
Common to all, as to assay: ≥ marks a high value that may be exact or a test limit, other limits are often not marked, values filed in µg/mL are converted to µM
The subject of experiment [1] is Candida albicans IHEM 8060.
The test system of experiment [2] is Bacillus licheniformis X39.
Experiment [3] has as its system Staphylococcus aureus ATCC 2592.
Experiment [4] relates to Psychrobacter faecalis X29.
Experiment [5] relates to Staphylococcus carnosus KHS.
Experiment [6] concerns Rhodococcus rhodochrous X15.
Experiment [7] concerns Enterobacter cloacae 14-262.
Experiment [8] has as its system Escherichia coli ATCC 25922.
For experiment [9], the system named is Staphylococcus aureus ATCC 29213.
In experiment [10] the test system is Pseudomonas aeruginosa ATCC 27853.
Experiment [11] concerns Enterobacter cloacae 06-267.
The subject of experiment [12] is Pseudomonas aeruginosa ATCC 9027.
Experiment [13] concerns Acinetobacter baumannii 5821.
Experiment [14] relates to Pseudomonas aeruginosa 3599.
The test system of experiment [15] is Klebsiella pneumoniae 01-252.
Experiment [16] deals with Staphylococcus aureus 01-001.
In experiment [17] the test system is Staphylococcus aureus 06-051.
The test system of experiment [18] is Klebsiella pneumoniae 01-239.
The test system of experiment [19] is Staphylococcus aureus ATCC 25923.
Experiment [20] relates to Pseudomonas aeruginosa 5106.
In experiment [21] the test system is Staphylococcus aureus 1056.
Experiment [22] has as its system Staphylococcus aureus MW2.
The test system of experiment [23] is Klebsiella aerogenes ATCC 13048.
Experiment [24] has as its system Staphylococcus aureus ATCC 29231.
The test system of experiment [25] is Candida albicans ATCC 10231.
The subject of experiment [26] is Bacillus subtilis IFO 3336.
The subject of experiment [27] is Escherichia coli IFO 3301.

Consider `CC[C@H](C)[C@@H]1NC(=O)[C@@H](N)CSSC[C@@H]2NC(=O)[C@@H]3CSSC[C@@H](C(=O)N[C@@H](CCCN=C(N)N)C(=O)O)NC(=O)[C@H](Cc4ccc(O)cc4)NC(=O)CNC(=O)[C@H](C)NC(=O)[C@H](C(C)C)NC(=O)[C@H](Cc4c[nH]c5ccccc45)NC(=O)CNC(=O)[C@@H]4CCCN4C(=O)[C@H](CCC(=O)O)NC(=O)[C@H](CCCCN)NC(=O)[C@H](Cc4cnc[nH]4)NC(=O)[C@H](CSSC[C@H](NC(=O)CNC(=O)[C@H](CC(N)=O)NC(=O)CNC(=O)[C@H](CC(N)=O)NC(=O)[C@H](CCCCN)NC1=O)C(=O)N[C@@H](CCC(N)=O)C(=O)N1CCC[C@H]1C(=O)N[C@@H](CC(=O)O)C(=O)NCC(=O)N[C@@H](CO)C(=O)N[C@@H](CCC(N)=O)C(=O)NCC(=O)N[C@@H](CC(N)=O)C(=O)N3)NC(=O)[C@H](Cc1ccc(O)cc1)NC(=O)[C@H](CCCN=C(N)N)NC(=O)[C@H](CO)NC2=O` [CIKNGNGCQPDGSQGNCCSRYCHKEPGWVAGYCR], for which the MIC (in experiment [1]; in the experiment on Candida glabrata) was 17.3 µM (≈ 63.9 µg/mL) throughout.
Turning to `CC[C@H](C)[C@@H]1NC(=O)[C@H](CCCCN)NC(=O)[C@@H](NC(=O)[C@H](Cc2ccccc2)NC(=O)[C@H](CC(C)C)NC(=O)[C@@H](NC(=O)[C@@H]2CCCN2C(=O)[C@@H](NC(=O)[C@@H](NC(=O)[C@H](CCCCN)NC(=O)CNC(=O)[C@@H](NC(=O)[C@H](CC(C)C)NC(=O)CNC(=O)[C@H](CC(C)C)NC(=O)[C@H](CC(C)C)NC(=O)[C@H](CO)NC(=O)CNC(=O)[C@H](CC(C)C)NC(=O)[C@@H](N)Cc2ccccc2)C(C)C)C(C)C)C(C)C)[C@@H](C)O)CSSC[C@@H](C(=O)O)NC(=O)[C@H](CCCCN)NC(=O)[C@H](CCCCN)NC(=O)[C@H](CO)NC1=O` [FLGSLLGLVGKVVPTLFCKISKKC], the MIC – broadly, the lowest concentration found to suppress growth – in experiment [2] came out at 9.8 µM (≈ 25 µg/mL); in experiment [3], 1.22 µM (≈ 3.1 µg/mL); in experiment [4] it was 4.9 µM (≈ 12.5 µg/mL); in experiment [5], 4.9 µM (≈ 12.5 µg/mL); in [6], 1.22 µM (≈ 3.1 µg/mL).
On to `CC[C@H](C)[C@H](NC(=O)[C@H](C)NC(=O)[C@H](CC(N)=O)NC(=O)[C@H](CCCCN)NC(=O)[C@@H](NC(=O)CNC(=O)[C@H](CCC(=O)O)NC(=O)[C@H](Cc1c[nH]c2ccccc12)NC(=O)[C@H](CC(C)C)NC(=O)[C@H](CCCCN)NC(=O)CNC(=O)[C@H](Cc1c[nH]c2ccccc12)NC(=O)[C@H](Cc1ccccc1)NC(=O)CN)C(C)C)C(N)=O` [GFWGKLWEGVKNAI], for which the MIC was 14 µM (≈ 22.5 µg/mL) in experiment [7]; 10 µM (≈ 16 µg/mL) in experiment [8]; at least 32 µM against Escherichia coli 5509; 4 µM (≈ 6.42 µg/mL) in [9]; above 32 µM in experiment [10]; at least 32 µM in the experiment with Escherichia coli 09-280. The minimum inhibitory concentration (MIC) in the experiment on Escherichia coli 170 is at least 32 µM; in experiment [11], at least 32 µM; in [12], 10 µM (≈ 16 µg/mL); in the experiment on Escherichia coli 09-240, 14 µM (≈ 22.5 µg/mL); in experiment [13], 7 µM (≈ 11.2 µg/mL); in [14] it was at least 32 µM. Also, the minimum inhibitory concentration (MIC) in experiment [15] was at least 32 µM; in [16], 4 µM (≈ 6.42 µg/mL); in [17], 4 µM (≈ 6.42 µg/mL); in [18] it was 12 µM (≈ 19.2 µg/mL); in experiment [19], 15 µM (≈ 24.1 µg/mL); in [20] it was at least 32 µM.
For the compound `CC(C)C[C@@H]1NC(=O)[C@H](Cc2cnc[nH]2)NC(=O)[C@H](C)NC(=O)[C@@H]2CCCN2C(=O)[C@@H]2CSSC[C@@H](C(=O)N[C@@H](CCCCN)C(=O)N[C@@H](Cc3c[nH]c4ccccc34)C(=O)N3CCC[C@H]3C(=O)N[C@@H](Cc3c[nH]c4ccccc34)C(=O)N[C@@H](CC(=O)O)C(=O)N[C@H](C(=O)O)C(C)C)NC(=O)[C@@H]3CSSC[C@H](NC(=O)[C@H](Cc4ccccc4)NC(=O)[C@@H](N)CC(C)C)C(=O)N[C@@H](CCCN=C(N)N)C(=O)N[C@@H](CCCCN)C(=O)NCC(=O)N[C@@H]([C@@H](C)O)C(=O)N[C@@H](CSSC[C@H](NC(=O)[C@H](CO)NC(=O)CNC(=O)[C@H](C(C)C)NC(=O)[C@H](CCCCN)NC(=O)[C@H](C(C)C)NC1=O)C(=O)N[C@@H](Cc1ccccc1)C(=O)NCC(=O)N[C@@H](Cc1ccccc1)C(=O)N[C@@H](CCCN=C(N)N)C(=O)N[C@@H](C)C(=O)N3)C(=O)N[C@@H](Cc1cnc[nH]1)C(=O)N[C@@H](Cc1ccccc1)C(=O)NCC(=O)NCC(=O)N2` [LFCRKGTCHFGGCPAHLVKVGSCFGFRACCKWPWDV], the values for the minimum inhibitory concentration (MIC) (in the experiment on Escherichia coli O157:H7; in experiment [21]) were 0.321 µM (≈ 1.29 µg/mL) and 0.291 µM (≈ 1.17 µg/mL), respectively.
For the compound `CC[C@H](C)[C@H](NC(=O)[C@H](CCCCN)NC(=O)[C@H](CCCCN)NC(=O)[C@H](CC(C)C)NC(=O)[C@@H](NC(=O)[C@H](CCCCN)NC(=O)[C@H](Cc1c[nH]c2ccccc12)NC(=O)[C@@H](N)CC(C)C)[C@@H](C)CC)C(=O)N[C@@H](Cc1c[nH]c2ccccc12)C(=O)N[C@@H](CCCN=C(N)N)C(=O)N[C@H](C(=O)NCC(=O)N[C@@H](Cc1c[nH]c2ccccc12)C(=O)N[C@@H](CC(N)=O)C(=O)N[C@@H](Cc1c[nH]c2ccccc12)C(=O)N[C@@H](CCCN=C(N)N)C(=O)O)C(C)C` [LWKILKKIWRVGWNWR], the minimum inhibitory concentration (MIC) in [22] is 14.7 µM (≈ 32 µg/mL); in experiment [23], at least 58.6 µM; in experiment [24], 7.33 µM (≈ 16 µg/mL); in experiment [25] it was 29.3 µM (≈ 64 µg/mL).
Regarding `NC(N)=NCCC[C@H](NC(=O)[C@H](CS)NC(=O)[C@H](CCCN=C(N)N)NC(=O)[C@H](CS)NC(=O)[C@H](CCCN=C(N)N)NC(=O)[C@H](CS)NC(=O)[C@H](CCCN=C(N)N)NC(=O)[C@H](CS)NC(=O)[C@@H](N)CCCN=C(N)N)C(=O)N[C@@H](CS)C(=O)O` [RCRCRCRCRC], the results for the MIC in experiment [26] and in experiment [27] were 7.61 µM (≈ 10 µg/mL) and 15.2 µM (≈ 20 µg/mL), respectively.

For the origin of these results see DBAASP.
